We go through six compounds from ChEMBL document CHEMBL2321799 (J Med Chem, 2013).

The first assay deals with T1, Ephrin type-A receptor 2 (Homo sapiens, UniProt P29317). The assay can be described thus: Antagonist activity at EphA2 in human PC3 cells assessed as inhibition of ephrin-A1-Fc-stimulated EphA2 phosphorylation pretreated for 20 mins by sandwich ELISA. It is filed as cell-based, PC-3.
T1 sequence (P29317 whole entry): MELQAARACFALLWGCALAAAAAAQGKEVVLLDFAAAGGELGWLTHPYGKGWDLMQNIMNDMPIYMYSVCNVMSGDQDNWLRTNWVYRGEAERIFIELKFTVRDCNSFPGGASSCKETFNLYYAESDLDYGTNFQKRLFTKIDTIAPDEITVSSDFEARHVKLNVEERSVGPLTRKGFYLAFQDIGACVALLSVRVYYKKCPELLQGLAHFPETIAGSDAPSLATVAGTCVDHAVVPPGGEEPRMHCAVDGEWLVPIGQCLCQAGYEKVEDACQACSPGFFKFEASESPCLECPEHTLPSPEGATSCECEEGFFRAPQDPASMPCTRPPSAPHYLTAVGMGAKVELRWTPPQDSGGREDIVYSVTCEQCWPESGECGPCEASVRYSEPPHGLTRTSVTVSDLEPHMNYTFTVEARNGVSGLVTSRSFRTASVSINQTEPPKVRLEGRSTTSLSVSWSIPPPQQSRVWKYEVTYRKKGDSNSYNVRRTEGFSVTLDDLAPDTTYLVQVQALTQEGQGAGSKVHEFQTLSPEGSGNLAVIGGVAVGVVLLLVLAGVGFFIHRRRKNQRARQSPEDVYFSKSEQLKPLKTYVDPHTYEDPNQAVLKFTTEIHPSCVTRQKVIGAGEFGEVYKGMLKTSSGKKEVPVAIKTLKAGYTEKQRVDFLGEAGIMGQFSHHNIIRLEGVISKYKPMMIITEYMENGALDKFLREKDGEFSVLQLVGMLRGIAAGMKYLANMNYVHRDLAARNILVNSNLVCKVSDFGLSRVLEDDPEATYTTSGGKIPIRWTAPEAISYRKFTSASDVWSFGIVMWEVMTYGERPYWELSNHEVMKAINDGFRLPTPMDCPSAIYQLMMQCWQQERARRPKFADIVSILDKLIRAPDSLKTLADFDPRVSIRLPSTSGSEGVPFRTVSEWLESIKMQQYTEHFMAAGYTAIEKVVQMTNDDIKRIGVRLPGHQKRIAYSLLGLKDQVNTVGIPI
For `C[C@H](CCC(=O)NCC(=O)O)[C@H]1CC[C@H]2[C@@H]3CC[C@@H]4C[C@H](O)CC[C@]4(C)[C@H]3CC[C@]12C` [LITHOGLYCOCHOLATE], the half-maximal inhibitory concentration (IC50) is 138 µM.

A further assay has as its target T1, Ephrin type-A receptor 2. The assay is described as follows: Inhibition of ephrin-A1-Fc binding to EphA2-Fc receptor (unknown origin) after 1 hr by ELISA.
Turning to `CC(=O)CNC(=O)CC[C@@H](C)[C@H]1CC[C@H]2[C@@H]3CC[C@@H]4C[C@H](O)CC[C@]4(C)[C@H]3CC[C@]12C`, the half-inhibitory concentration (IC50) was above 316 µM.

`C[C@H](CCC(=O)N[C@@H](CC(N)=O)C(=O)O)[C@H]1CC[C@H]2[C@@H]3CC[C@@H]4C[C@H](O)CC[C@]4(C)[C@H]3CC[C@]12C` had a half-maximal inhibitory concentration (IC50) above 316 µM.

With `C[C@H](CCC(=O)N[C@H](CC(N)=O)C(=O)O)[C@H]1CC[C@H]2[C@@H]3CC[C@@H]4C[C@H](O)CC[C@]4(C)[C@H]3CC[C@]12C`, the IC50 was above 316 µM.

`C[C@H](CCC(=O)N[C@@H](CC(=O)O)C(=O)O)[C@H]1CC[C@H]2[C@@H]3CC[C@@H]4C[C@H](O)CC[C@]4(C)[C@H]3CC[C@]12C` showed an IC50 above 316 µM.

In turn, `C[C@H](CCC(=O)N[C@H](CC(=O)O)C(=O)O)[C@H]1CC[C@H]2[C@@H]3CC[C@@H]4C[C@H](O)CC[C@]4(C)[C@H]3CC[C@]12C` showed an IC50 above 316 µM.

Turning to `C[C@H](CCC(=O)NCC(=O)O)[C@H]1CC[C@H]2[C@@H]3CC[C@@H]4C[C@H](O)CC[C@]4(C)[C@H]3CC[C@]12C` [LITHOGLYCOCHOLATE], the half-inhibitory concentration (IC50) is 49 µM.
